≈ marks a conversion by molar mass, not a printed value.
What was measured:
[1] = test system: Mycobacterium tuberculosis; assay: Antimycobacterial activity against Mycobacterium tuberculosis H37Rv by alamar blue assay; format: functional
[2] = Cytotoxicity against mouse RAW264.7 cells assessed as inhibition of cell growth at 25 ug/ml incubated for 48 hrs by MTT assay relative to control; format: toxicity, cell-based; conditions: at 25 µg/mL

Row | SMILES | MIC [1] [µg/mL] | inhibition at 48 h, 25 ug/ml [2] [%]
1 | CCc1cc(-c2nc(C)c(C(=O)OCc3cn(-c4cccc(C)c4)nn3)s2)ccn1 | 6.25 (≈ 14.9 µM) | 30.1
2 | CCc1cc(-c2nc(C)c(C(=O)OCc3cn(-c4ccc(C)c([N+](=O)[O-])c4)nn3)s2)ccn1 | 12.5 (≈ 26.9 µM) | –
3 | CCc1cc(-c2nc(C)c(C(=O)OCc3cn(-c4ccccc4Cl)nn3)s2)ccn1 | 25 (≈ 56.8 µM) | –
4 | CCc1cc(-c2nc(C)c(C(=O)OCc3cn(-c4ccc(Br)cc4)nn3)s2)ccn1 | > 25 | –
5 | CCc1cc(-c2nc(C)c(C(=O)OCc3cn(-c4ccccc4OC)nn3)s2)ccn1 | > 25 | –
6 | CCCc1cc(-c2nc(C)c(C(=O)OCc3cn(-c4ccc(CC)cc4)nn3)s2)ccn1 | 1.56 (≈ 3.49 µM) | 27.2
7 | CCc1cc(-c2nc(C)c(C(=O)OCc3cn(-c4cccc([N+](=O)[O-])c4)nn3)s2)ccn1 | 12.5 (≈ 27.7 µM) | –
8 | CCCc1cc(-c2nc(C)c(C(=O)OCc3cn(-c4ccc(C)cc4)nn3)s2)ccn1 | > 25 | –
9 | CCc1ccc(-n2cc(COC(=O)c3sc(-c4ccnc(CC)c4)nc3C)nn2)cc1 | 3.12 (≈ 7.2 µM) | 29.2
10 | CCCc1cc(-c2nc(C)c(C(=O)OCc3cn(-c4cccc(Cl)c4)nn3)s2)ccn1 | 12.5 (≈ 27.5 µM) | –
11 | CCc1cc(-c2nc(C)c(C(=O)OCc3cn(-c4c(C)cc(C)cc4C)nn3)s2)ccn1 | 25 (≈ 55.9 µM) | –
12 | CCCc1cc(-c2nc(C)c(C(=O)OCc3cn(-c4cccc(OC)c4)nn3)s2)ccn1 | 6.25 (≈ 13.9 µM) | 25.7
13 | CCc1cc(-c2nc(C)c(C(=O)OCc3cn(-c4ccc(OC)cc4)nn3)s2)ccn1 | 12.5 (≈ 28.7 µM) | –
14 | CCc1cc(-c2nc(C)c(C(=O)OCc3cn(-c4ccc(C)cc4)nn3)s2)ccn1 | 25 (≈ 59.6 µM) | –
15 | CCCc1cc(-c2nc(C)c(C(=O)OCc3cn(-c4cccc([N+](=O)[O-])c4)nn3)s2)ccn1 | > 25 | –
16 | CCCc1cc(-c2nc(C)c(C(=O)OCc3cn(-c4ccccc4)nn3)s2)ccn1 | 12.5 (≈ 29.8 µM) | –
17 | CCCc1cc(-c2nc(C)c(C(=O)OCc3cn(-c4ccc(Br)cc4)nn3)s2)ccn1 | 25 (≈ 50.2 µM) | –
18 | CCc1cc(-c2nc(C)c(C(=O)OCc3cn(-c4cccc(OC)c4)nn3)s2)ccn1 | 6.25 (≈ 14.4 µM) | 26
19 | CCc1cc(-c2nc(C)c(C(=O)OCc3cn(-c4cccc(Cl)c4)nn3)s2)ccn1 | 25 (≈ 56.8 µM) | –
20 | CCc1cc(-c2nc(C)c(C(=O)OCc3cn(-c4ccc(C)cc4C)nn3)s2)ccn1 | 6.25 (≈ 14.4 µM) | 21.9
21 | CCc1cc(-c2nc(C)c(C(=O)OCc3cn(-c4ccccc4)nn3)s2)ccn1 | 25 (≈ 61.7 µM) | –
22 | CCCc1cc(-c2nc(C)c(C(=O)OCc3cn(-c4ccc(Cl)cc4)nn3)s2)ccn1 | > 25 | –
23 | CCc1cc(-c2nc(C)c(C(=O)OCc3cn(-c4ccccc4C)nn3)s2)ccn1 | 12.5 (≈ 29.8 µM) | –
24 | CCCc1cc(-c2nc(C)c(C(=O)OCc3cn(-c4ccc(OC)cc4)nn3)s2)ccn1 | > 25 | –
25 | CCc1cc(-c2nc(C)c(C(=O)OCc3cn(-c4ccc(Cl)cc4)nn3)s2)ccn1 | 25 (≈ 56.8 µM) | –
26 | CCc1cc(-c2nc(C)c(C(=O)OCc3cn(-c4ccccc4F)nn3)s2)ccn1 | 12.5 (≈ 29.5 µM) | –
27 | CCCc1cc(-c2nc(C)c(C(=O)OCc3cn(-c4ccccc4F)nn3)s2)ccn1 | 25 (≈ 57.1 µM) | –
28 | O=C(O)c1cn(C2CC2)c2cc(N3CCNCC3)c(F)cc2c1=O [CIPROFLOXACIN] | 1.56 (≈ 4.71 µM) | –
29 | CC[C@@H](CO)NCCN[C@@H](CC)CO [ETHAMBUTOL] | 3.12 (≈ 15.3 µM) | –

Reference: ChEMBL document CHEMBL5584210, “Design, synthesis and antitubercular assessment of 1, 2, 3-triazole incorporated thiazolylcarboxylate derivatives” (Bioorg Med Chem Lett, 2024)
